Test results: publication PMC4300089, “Structure-Guided Design of Selective Epac1 and Epac2 Agonists” (PLoS Biology, 2015)

Key:
PKA-Iα = biological target: T1, PKA-Iα (Homo sapiens, UniProt P10644); test: PKA activity assay (coupled spectrophotometric, Kemptide), PKA-Iα; assay type: biochemical; details: for EC50: read-out: Kact; for A (PKA activity): PKAIα
T1 construct: made in house
Protocol: The recombinant human PKA catalytic subunit (Cα1) and the four human PKA regulatory subunits (RIα, RIβ, RIIα, RIIβ) were expressed, purified, and characterized as described. […] PKA holoenzymes were formed by mixing the R- and C-subunit at a molar ratio of 1.2:1 and extensive dialysis against 20 mM MOPS (pH 7.0), 150 mM NaCl, 2.5 mM β-mercaptoethanol, supplemented with 1 mM ATP and 10 mM MgCl2 for PKA-I at 4°C overnight. PKA holoenzymes were used at about 20 nM for the activation assay. The apparent activation constants (Kact) were determined by fitting the concentration-dependent activity to a sigmoid dose-response model.

Epac2^fl = biological target: T2, Epac2^fl (Mus musculus, UniProt Q9EQZ6); test: Epac activation assay, full length Epac2; assay type: biochemical; set-up: made in house; details: for Rel. kmax: maximal activity relative to cAMP
T2 sequence (Q9EQZ6 1-993 isoform Q9EQZ6-3): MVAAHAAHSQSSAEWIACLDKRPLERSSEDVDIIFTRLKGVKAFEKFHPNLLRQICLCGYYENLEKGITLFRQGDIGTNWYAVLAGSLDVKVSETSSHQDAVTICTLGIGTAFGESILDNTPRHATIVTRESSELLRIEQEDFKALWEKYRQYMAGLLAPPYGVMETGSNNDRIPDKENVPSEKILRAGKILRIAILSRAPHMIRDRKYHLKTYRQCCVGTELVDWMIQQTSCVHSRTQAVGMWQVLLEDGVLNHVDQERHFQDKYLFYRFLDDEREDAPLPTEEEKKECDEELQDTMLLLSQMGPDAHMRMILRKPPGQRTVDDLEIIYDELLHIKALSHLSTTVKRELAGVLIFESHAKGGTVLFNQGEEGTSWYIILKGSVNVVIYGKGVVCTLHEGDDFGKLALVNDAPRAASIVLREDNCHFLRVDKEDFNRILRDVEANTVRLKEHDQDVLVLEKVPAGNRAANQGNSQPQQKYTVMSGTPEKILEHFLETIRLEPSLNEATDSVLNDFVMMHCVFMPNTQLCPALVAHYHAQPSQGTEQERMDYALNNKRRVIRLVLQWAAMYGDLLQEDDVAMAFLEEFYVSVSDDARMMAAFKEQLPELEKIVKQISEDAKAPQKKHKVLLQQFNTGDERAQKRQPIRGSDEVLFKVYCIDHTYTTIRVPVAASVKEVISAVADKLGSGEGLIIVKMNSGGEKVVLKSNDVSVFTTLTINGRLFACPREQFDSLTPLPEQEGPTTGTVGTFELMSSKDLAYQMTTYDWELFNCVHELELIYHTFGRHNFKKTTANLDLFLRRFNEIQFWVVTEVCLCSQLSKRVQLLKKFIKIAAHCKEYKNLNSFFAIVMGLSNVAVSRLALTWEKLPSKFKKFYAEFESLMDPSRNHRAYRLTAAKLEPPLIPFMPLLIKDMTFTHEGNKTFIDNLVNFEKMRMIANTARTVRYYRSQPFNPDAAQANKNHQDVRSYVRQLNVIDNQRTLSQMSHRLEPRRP
Protocol: Murine Epac2 was used as all previous structural studies were performed with it.
The activity of Epac was determined by a fluorescence assay. […] The fluorescence intensity of Rap1B•mGDP is approximately twice that of free mGDP, and thus, nucleotide exchange can be observed as a decay in fluorescence upon the addition of excess unlabeled GDP.

T1 sequence (P10644 whole entry): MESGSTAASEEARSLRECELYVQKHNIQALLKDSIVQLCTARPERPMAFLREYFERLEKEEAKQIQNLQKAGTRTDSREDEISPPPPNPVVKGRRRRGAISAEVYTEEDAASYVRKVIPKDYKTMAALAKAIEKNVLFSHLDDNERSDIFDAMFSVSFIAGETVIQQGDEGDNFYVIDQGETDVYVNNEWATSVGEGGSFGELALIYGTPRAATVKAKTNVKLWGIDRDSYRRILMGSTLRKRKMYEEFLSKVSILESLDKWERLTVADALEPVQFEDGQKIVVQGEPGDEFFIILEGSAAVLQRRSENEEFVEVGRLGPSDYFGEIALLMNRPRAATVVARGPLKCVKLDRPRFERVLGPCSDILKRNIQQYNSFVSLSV

`Nc1ncnc2c1nc(SCc1ccccc1)n2[C@@H]1O[C@@H]2CO[P@](O)(=S)O[C@H]2[C@H]1O` [S-220, Sp-8-BnT-cAMPS] was tested, and the “Kact compared to cAMP (times higher)” value (PKA-Iα; PKA-Iα) was “three to eight times higher”, the EC50 (PKA-Iα; PKA-Iα) was 0.29 µM and the “A (PKA activity)” value (PKA-Iα; concentration 1 μM) was 1.97E+01 U/mg. For the same compound, the “A (PKA activity)” value (PKA-Iα; concentration 1.00E+01 μM) was 2.59E+01 U/mg, the “A (PKA activity)” value (PKA-Iα; concentration 1.00E-01 μM) was 9.4227 U/mg and the “A (PKA activity)” value (PKA-Iα; concentration 1.00E-02 μM) was 3.6309 U/mg. The “A (PKA activity)” value (PKA-Iα; concentration 1.00E-03 μM) was 3.7632 U/mg, the “A (PKA activity)” value (PKA-Iα; concentration 1.00E-05 μM) was 3.6309 U/mg and the “A (PKA activity)” value (PKA-Iα; concentration 2.50E+02 μM) was 2.40E+01 U/mg. The “A (PKA activity)” value (PKA-Iα; concentration 2.50E-01 μM) was 1.33E+01 U/mg, the “A (PKA activity)” value (PKA-Iα; concentration 5.00E+01 μM) was 2.52E+01 U/mg and the kobs (Epac2^fl; 0.001 μM compound) was 1.9e-05 s⁻¹. The kobs (Epac2^fl; 0.03 μM compound) was 4.4e-05 s⁻¹, the kobs (Epac2^fl; 0.04 μM compound) was 4.9e-05 s⁻¹ and the kobs (Epac2^fl; 0.05 μM compound) was 5.4e-05 s⁻¹. It also gave a kobs (Epac2^fl; 0.06 μM compound) of 6e-05 s⁻¹, a kobs (Epac2^fl; 0.07 μM compound) of 6.8e-05 s⁻¹ and a kobs (Epac2^fl; 0.08 μM compound) of 6.9e-05 s⁻¹. The kobs (Epac2^fl; 0.1 μM compound) was 9.1e-05 s⁻¹, the kobs (Epac2^fl; 0.2 μM compound) was 0.00016 s⁻¹ and the kobs (Epac2^fl; 0.3 μM compound) was 0.000217 s⁻¹. It also gave a kobs (Epac2^fl; 0.4 μM compound) of 0.000258 s⁻¹, a kobs (Epac2^fl; 0.5 μM compound) of 0.000295 s⁻¹ and a kobs (Epac2^fl; 0.6 μM compound) of 0.000369 s⁻¹. It also gave a kobs (Epac2^fl; 0.7 μM compound) of 0.000402 s⁻¹, a kobs (Epac2^fl; 0.8 μM compound) of 0.000428 s⁻¹ and a kobs (Epac2^fl; 1 μM compound) of 0.000509 s⁻¹. It also gave a kobs (Epac2^fl; 2 μM compound) of 0.000819 s⁻¹, a kobs (Epac2^fl; 3 μM compound) of 0.000975 s⁻¹ and a kobs (Epac2^fl; 4 μM compound) of 0.00102 s⁻¹. It also gave a kobs (Epac2^fl; 5 μM compound) of 0.0011 s⁻¹, a kobs (Epac2^fl; 6 μM compound) of 0.00114 s⁻¹ and a kobs (Epac2^fl; 7 μM compound) of 0.00118 s⁻¹. The kobs (Epac2^fl; 8 μM compound) was 0.00118 s⁻¹, the kobs (Epac2^fl; 10 μM compound) was 0.00125 s⁻¹ and the kobs (Epac2^fl; 20 μM compound) was 0.00149 s⁻¹. It also gave a kobs (Epac2^fl; 30 μM compound) of 0.00153 s⁻¹, a kobs (Epac2^fl; 40 μM compound) of 0.00152 s⁻¹ and a kobs (Epac2^fl; 50 μM compound) of 0.0015 s⁻¹. For the same compound, the kobs (Epac2^fl; 60 μM compound) was 0.00155 s⁻¹, the kobs (Epac2^fl; 70 μM compound) was 0.00155 s⁻¹ and the kobs (Epac2^fl; 80 μM compound) was 0.00152 s⁻¹. For the same compound, the kobs (Epac2^fl; 100 μM compound) was 0.0015 s⁻¹, the AC50 (Epac2^fl; Epac2^fl) was 2.1 µM and the “potency relative to cAMP by activation potential (times more potently than cAMP)” value (Epac2^fl; Epac2^fl) was 200 times. For the same compound, the Rel. kmax (Epac2^fl; Epac2^fl) was 6.6.

With `COC1C2OP(=O)(O)OCC2OC1n1c(Sc2ccc(Cl)cc2)nc2c(N)ncnc21` [D-007, 8-pCPT-2′-O-Me-cAMP, reference compound] the EC50 (PKA-Iα; PKA-Iα) was 14 µM, the “A (PKA activity)” value (PKA-Iα; concentration 1 μM) was 3.924 U/mg and the “A (PKA activity)” value (PKA-Iα; concentration 1.00E+01 μM) was 1.06E+01 U/mg. For the same compound, the “A (PKA activity)” value (PKA-Iα; concentration 1.00E+02 μM) was 1.58E+01 U/mg, the “A (PKA activity)” value (PKA-Iα; concentration 1.00E-01 μM) was 3.7714 U/mg and the “A (PKA activity)” value (PKA-Iα; concentration 1.00E-03 μM) was 3.6515 U/mg. The “A (PKA activity)” value (PKA-Iα; concentration 1.00E-05 μM) was 2.6923 U/mg, the “A (PKA activity)” value (PKA-Iα; concentration 2.50E+01 μM) was 1.22E+01 U/mg and the “A (PKA activity)” value (PKA-Iα; concentration 2.50E+02 μM) was 1.83E+01 U/mg. The “A (PKA activity)” value (PKA-Iα; concentration 5.00E+02 μM) was 1.79E+01 U/mg, the “A (PKA activity)” value (PKA-Iα; concentration […]) was 7.9352 U/mg and the kobs (Epac2^fl; 0.3 μM compound) was 1.59e-05 s⁻¹. It also gave a kobs (Epac2^fl; 0.5 μM compound) of 1.62e-05 s⁻¹, a kobs (Epac2^fl; 0.8 μM compound) of 1.75e-05 s⁻¹ and a kobs (Epac2^fl; 1 μM compound) of 1.95e-05 s⁻¹. It also gave a kobs (Epac2^fl; 2 μM compound) of 2.18e-05 s⁻¹, a kobs (Epac2^fl; 3 μM compound) of 2.37e-05 s⁻¹ and a kobs (Epac2^fl; 4 μM compound) of 2.69e-05 s⁻¹. The kobs (Epac2^fl; 5 μM compound) was 2.86e-05 s⁻¹, the kobs (Epac2^fl; 6 μM compound) was 3.39e-05 s⁻¹ and the kobs (Epac2^fl; 7 μM compound) was 3.51e-05 s⁻¹. For the same compound, the kobs (Epac2^fl; 8 μM compound) was 3.74e-05 s⁻¹, the kobs (Epac2^fl; 10 μM compound) was 4.22e-05 s⁻¹ and the kobs (Epac2^fl; 20 μM compound) was 5.69e-05 s⁻¹. It also gave a kobs (Epac2^fl; 30 μM compound) of 7e-05 s⁻¹, a kobs (Epac2^fl; 40 μM compound) of 7.51e-05 s⁻¹ and a kobs (Epac2^fl; 50 μM compound) of 7.76e-05 s⁻¹. The kobs (Epac2^fl; 60 μM compound) was 8.43e-05 s⁻¹, the kobs (Epac2^fl; 70 μM compound) was 8.92e-05 s⁻¹ and the kobs (Epac2^fl; 80 μM compound) was 9.01e-05 s⁻¹. For the same compound, the kobs (Epac2^fl; 100 μM compound) was 9.57e-05 s⁻¹, the kobs (Epac2^fl; 200 μM compound) was 9.52e-05 s⁻¹ and the kobs (Epac2^fl; 400 μM compound) was 9.57e-05 s⁻¹. The kobs (Epac2^fl; 600 μM compound) was 9.06e-05 s⁻¹, the kobs (Epac2^fl; 800 μM compound) was 8.29e-05 s⁻¹ and the “ability to reach half-maximal cAMP activity” value (Epac2^fl; Epac2) was “reaches half-maximal cAMP activity with Epac2 only under saturating conditions”. For the same compound, the AC50 (Epac2^fl; Epac2^fl) was 16 µM and the Rel. kmax (Epac2^fl; Epac2^fl) was 0.4.
